Assay results: ChEMBL document CHEMBL3431459, “Roche carnitine palmitoyltransferase modulator screening data (supplementary data associated with the publication CHEMBL2216752)”
Converted amounts (≈) assume the structure as drawn.

How the values were obtained:
[1] = SUPPLEMENTARY: PAMPA permeability assay; format: physicochemical; conditions: read-out: Permeability
[2] = target: T1, Carnitine O-palmitoyltransferase 1, liver isoform (Homo sapiens, UniProt P50416); experiment: (§1) SUPPLEMENTARY: Inhibition of Carnitine palmitoyltransferase 1, liver isoform
T1 sequence (P50416 whole entry): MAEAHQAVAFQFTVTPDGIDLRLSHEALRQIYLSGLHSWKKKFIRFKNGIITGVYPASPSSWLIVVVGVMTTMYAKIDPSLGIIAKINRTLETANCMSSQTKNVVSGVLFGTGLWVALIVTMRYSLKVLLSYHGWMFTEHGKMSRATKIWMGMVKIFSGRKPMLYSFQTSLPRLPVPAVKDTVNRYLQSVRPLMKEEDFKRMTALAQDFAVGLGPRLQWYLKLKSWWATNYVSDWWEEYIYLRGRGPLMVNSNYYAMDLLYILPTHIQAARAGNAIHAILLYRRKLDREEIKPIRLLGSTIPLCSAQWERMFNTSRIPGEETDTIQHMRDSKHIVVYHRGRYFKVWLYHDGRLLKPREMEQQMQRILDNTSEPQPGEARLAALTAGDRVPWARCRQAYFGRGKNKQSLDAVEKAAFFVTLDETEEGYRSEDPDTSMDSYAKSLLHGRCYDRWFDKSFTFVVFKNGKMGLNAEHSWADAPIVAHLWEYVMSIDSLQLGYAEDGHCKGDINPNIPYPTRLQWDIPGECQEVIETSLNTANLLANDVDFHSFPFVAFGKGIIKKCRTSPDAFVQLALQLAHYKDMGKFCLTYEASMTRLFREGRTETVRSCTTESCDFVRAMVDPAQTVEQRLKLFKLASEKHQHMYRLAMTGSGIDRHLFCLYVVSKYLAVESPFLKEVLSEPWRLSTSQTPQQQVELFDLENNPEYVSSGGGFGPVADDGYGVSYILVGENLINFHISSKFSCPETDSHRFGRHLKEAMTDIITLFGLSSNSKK

[3] = target: T2, Carnitine O-palmitoyltransferase 1, liver isoform (Rattus norvegicus, UniProt P32198); experiment: as §1
T2 sequence (P32198 whole entry): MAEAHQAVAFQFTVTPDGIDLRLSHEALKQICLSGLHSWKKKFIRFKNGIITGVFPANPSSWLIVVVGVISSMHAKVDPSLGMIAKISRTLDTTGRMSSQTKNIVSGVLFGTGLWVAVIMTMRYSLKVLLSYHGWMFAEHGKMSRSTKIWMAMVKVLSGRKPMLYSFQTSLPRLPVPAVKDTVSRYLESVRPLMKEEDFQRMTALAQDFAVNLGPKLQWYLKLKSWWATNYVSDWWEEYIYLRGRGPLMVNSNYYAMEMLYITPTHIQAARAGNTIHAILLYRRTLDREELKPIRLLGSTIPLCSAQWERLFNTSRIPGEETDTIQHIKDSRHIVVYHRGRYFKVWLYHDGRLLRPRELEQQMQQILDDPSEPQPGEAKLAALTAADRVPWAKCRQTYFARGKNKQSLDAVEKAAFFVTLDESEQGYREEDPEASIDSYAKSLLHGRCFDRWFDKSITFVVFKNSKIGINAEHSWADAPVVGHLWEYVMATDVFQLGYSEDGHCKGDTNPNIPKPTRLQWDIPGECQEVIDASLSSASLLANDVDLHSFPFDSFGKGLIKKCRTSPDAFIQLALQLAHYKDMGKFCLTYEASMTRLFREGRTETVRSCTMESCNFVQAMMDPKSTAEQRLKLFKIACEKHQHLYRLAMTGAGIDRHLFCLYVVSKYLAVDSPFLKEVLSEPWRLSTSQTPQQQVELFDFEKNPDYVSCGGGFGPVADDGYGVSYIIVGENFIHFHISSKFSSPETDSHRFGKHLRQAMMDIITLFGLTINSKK

[4] = target: T3, Carnitine O-palmitoyltransferase 1, muscle isoform (Homo sapiens, UniProt Q92523); experiment: SUPPLEMENTARY: Inhibition of Carnitine palmitoyltransferase 1, muscle isoform; set-up: species or system Muscle tissue
T3 sequence (Q92523 whole entry): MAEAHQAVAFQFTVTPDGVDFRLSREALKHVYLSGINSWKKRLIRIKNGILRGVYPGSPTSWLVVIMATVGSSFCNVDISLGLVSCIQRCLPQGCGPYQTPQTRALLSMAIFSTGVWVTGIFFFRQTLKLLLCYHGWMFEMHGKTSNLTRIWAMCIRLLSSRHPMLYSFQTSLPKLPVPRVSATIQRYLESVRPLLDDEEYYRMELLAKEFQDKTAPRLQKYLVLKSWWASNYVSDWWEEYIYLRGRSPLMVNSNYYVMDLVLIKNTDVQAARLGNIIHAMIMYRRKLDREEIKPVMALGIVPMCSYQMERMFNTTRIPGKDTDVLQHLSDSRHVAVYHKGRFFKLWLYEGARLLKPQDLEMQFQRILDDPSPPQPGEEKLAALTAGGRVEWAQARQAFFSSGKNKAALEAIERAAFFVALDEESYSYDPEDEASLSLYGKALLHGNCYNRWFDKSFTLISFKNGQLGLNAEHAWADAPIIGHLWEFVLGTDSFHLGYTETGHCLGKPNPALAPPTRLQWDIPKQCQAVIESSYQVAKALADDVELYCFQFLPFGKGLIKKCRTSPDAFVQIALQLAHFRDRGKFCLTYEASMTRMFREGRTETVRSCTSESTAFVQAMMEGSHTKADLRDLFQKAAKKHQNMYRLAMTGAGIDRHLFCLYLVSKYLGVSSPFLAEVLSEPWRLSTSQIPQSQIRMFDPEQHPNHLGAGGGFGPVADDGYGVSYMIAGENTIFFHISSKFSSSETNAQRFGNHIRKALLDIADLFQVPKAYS

[5] = SUPPLEMENTARY: Lipophilicity (log D) Determination by high-throughput shake-flask; format: physicochemical; conditions: octanol/water
[6] = target: T4, Carnitine O-palmitoyltransferase 2, mitochondrial (Homo sapiens, UniProt P23786); experiment: (§2) SUPPLEMENTARY: Inhibition of Carnitine palmitoyltransferase 2
T4 sequence (P23786 whole entry): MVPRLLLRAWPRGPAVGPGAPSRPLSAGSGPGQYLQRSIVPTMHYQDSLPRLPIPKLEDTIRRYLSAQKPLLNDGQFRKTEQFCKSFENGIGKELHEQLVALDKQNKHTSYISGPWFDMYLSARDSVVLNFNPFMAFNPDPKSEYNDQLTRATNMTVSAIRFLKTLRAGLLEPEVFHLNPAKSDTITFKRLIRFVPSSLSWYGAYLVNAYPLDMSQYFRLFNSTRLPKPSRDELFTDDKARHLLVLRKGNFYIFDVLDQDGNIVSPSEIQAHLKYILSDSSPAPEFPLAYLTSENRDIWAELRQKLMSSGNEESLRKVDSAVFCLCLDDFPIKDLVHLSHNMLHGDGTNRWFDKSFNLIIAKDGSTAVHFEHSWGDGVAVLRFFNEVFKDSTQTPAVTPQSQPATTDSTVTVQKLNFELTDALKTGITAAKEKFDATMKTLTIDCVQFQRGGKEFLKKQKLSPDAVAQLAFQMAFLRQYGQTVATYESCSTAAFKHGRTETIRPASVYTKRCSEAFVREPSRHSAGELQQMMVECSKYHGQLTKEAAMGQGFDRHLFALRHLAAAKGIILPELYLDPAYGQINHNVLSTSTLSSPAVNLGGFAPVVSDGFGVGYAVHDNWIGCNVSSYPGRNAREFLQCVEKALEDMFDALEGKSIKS

[7] = target: T5, Carnitine O-palmitoyltransferase 2, mitochondrial (Rattus norvegicus, UniProt P18886); experiment: as §2
T5 sequence (P18886 whole entry): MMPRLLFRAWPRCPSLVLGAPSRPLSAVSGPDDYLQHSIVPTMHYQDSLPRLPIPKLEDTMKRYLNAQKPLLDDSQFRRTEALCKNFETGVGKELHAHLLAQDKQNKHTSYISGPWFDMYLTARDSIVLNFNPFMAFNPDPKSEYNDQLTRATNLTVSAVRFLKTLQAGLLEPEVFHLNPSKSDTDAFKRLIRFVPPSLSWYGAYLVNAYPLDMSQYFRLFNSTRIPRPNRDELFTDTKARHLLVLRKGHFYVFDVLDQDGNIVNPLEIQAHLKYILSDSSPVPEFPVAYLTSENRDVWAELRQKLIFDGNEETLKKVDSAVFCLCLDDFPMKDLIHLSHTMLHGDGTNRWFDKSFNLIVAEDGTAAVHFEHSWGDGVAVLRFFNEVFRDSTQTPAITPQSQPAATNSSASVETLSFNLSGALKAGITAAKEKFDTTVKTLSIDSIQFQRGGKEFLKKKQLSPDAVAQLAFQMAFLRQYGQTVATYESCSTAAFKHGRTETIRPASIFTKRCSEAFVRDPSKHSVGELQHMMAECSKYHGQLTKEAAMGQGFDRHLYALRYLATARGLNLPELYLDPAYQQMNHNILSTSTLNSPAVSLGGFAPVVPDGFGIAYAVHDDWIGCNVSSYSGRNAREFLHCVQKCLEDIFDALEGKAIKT

[8] = SUPPLEMENTARY: Lyophilisation Solubility Assay (LYSA); format: physicochemical; conditions: read-out: Kinetic_solubility

Compound | Papp [1] [×10⁻⁶ cm/s] | IC50 [2] [nM] | IC50 [3] [nM] | IC50 [4] [nM] | logD [5] | IC50 [6] [nM] | IC50 [7] [nM] | solubility kinetic [8] [µg/mL]
Cc1cc(C)cc(S(=O)(=O)n2ccc3ccc(C(=O)Nc4ccc(C(=O)O)cc4)cc32)c1 | 1.46 | 35.3 | 29.1 | > 100000 | > 3 | 1940 | 6480 | 1 (≈ 2.23 µM)
CCN(CC)C(=O)c1ccc(-c2noc([C@H]3CCCCN3C(=O)COc3ccccc3)n2)cc1 | 1.49 | 40.2 | 1040 | > 100000 | 3.3 | 19500 | 13200 | 31 (≈ 67 µM)
O=C(COc1ccccc1)N1CCCC[C@@H]1c1noc(-c2cccc3[nH][nH]c(=O)c23)n1 | 6.44 | 99.8 | 93.1 | 7620 | 2.53 | 6260 | 7630 | 46 (≈ 110 µM)
COc1ccc(Cl)cc1S(=O)(=O)N1CCOc2ccc(C(=O)Nc3ccc(C(=O)O)c(F)c3)cc21 | 1.71 | 65.1 | 80.5 | 1800 | 0.29 | 6300 | 23400 | 15 (≈ 28.8 µM)
O=C(COc1ccccc1)N1CCCC[C@@H]1c1noc(C2CCCCC2)n1 | 0.965 | 86.5 | 664 | > 100000 | 3.31 | 47600 | > 100000 | < 1
O=C(O)c1ccc(NC(=O)c2cccc(S(=O)(=O)N3CCCc4ccc(C(F)(F)F)cc43)c2)cc1 | 3.63 | 34.2 | 122 | 4930 | 1.93 | 5730 | 2920 | 44 (≈ 87.2 µM)
COc1ccc(Cl)cc1S(=O)(=O)N(C)c1cc(C(=O)Nc2ncc(CC(=O)O)s2)cc2c1OCO2 | 2.22 | 67.9 | 38.5 | 1210 | -0.06 | > 100000 | > 100000 | 277 (≈ 513 µM)
COc1ccc(Cl)cc1S(=O)(=O)N1CCOc2c(F)cc(C(=O)Nc3ccc(C(=O)O)c(Cl)c3)cc21 | 1.45 | 131 | 166 | 5110 | 0.42 | 1720 | 5740 | 380 (≈ 684 µM)
COc1ccc(Cl)cc1S(=O)(=O)N1CCOc2c(Cl)cc(C(=O)Nc3ccn(CC(=O)O)n3)cc21 | 0.03 | 218 | 144 | 5650 | -0.79 | > 100000 | > 100000 | 558 (≈ 1030 µM)
O=C(COc1ccccc1)N1CCCC[C@@H]1c1noc(-c2cnnc3ccccc23)n1 | 3.59 | 49.1 | 136 | > 100000 | 2.9 | 18800 | 89900 | 18 (≈ 43.3 µM)
